Source: patent publication US10047105B2, “Gyrase inhibitors” (Merck Sharp & Dohme Corp., priority 2009, dated 2018)

Key:
S. pneumoniae ATCC 51916 = assay: MIC, S. pneumoniae; format: cell-based; settings: S. pneumoniae (Spn52); in µg/mL
S. aureus ATCC 13709 = assay: MIC, antibacterial potency, S. aureus; format: cell-based; settings: S. aureus (SA); in µg/mL

| Compound | MIC Spn52 (S. pneumoniae ATCC 51916) | MIC, SA (S. aureus ATCC 13709) |
| --- | --- | --- |
| CCc1[nH]c2nc(Sc3ccc4ccc(C(=O)O)nc4c3)nc(N3CC(CNC(=O)c4cn(C)nc4C(F)(F)F)C3)c2c1Cl [700,805] | 2 | <=0.5 |
| CCc1[nH]c2nc(Sc3ccc4ccc(C(=O)O)nc4c3)nc(N3CC(CNS(C)(=O)=O)C3)c2c1Cl [700,806] | 16 | 4 |
| CCc1[nH]c2nc(Sc3ccc4ccc(C(=O)O)nc4c3)nc(N3CC(NC(=O)C4CC4)C3)c2c1Cl [700,807] | 8 | 2 |
| CCc1[nH]c2nc(Sc3ccc4ccc(C(=O)O)nc4c3)nc(N3CC(NS(C)(=O)=O)C3)c2c1Cl [700,808] | 64 | 8 |
| C#CCOC(=O)NC1CN(c2nc(Sc3ccc4ccc(C(=O)O)nc4c3)nc3[nH]c(CC)c(Cl)c23)C1 [700,809] | 4 | <=0.5 |
| CCc1[nH]c2nc(Sc3cnc4c(N)nc(CN5CCOCC5)nc4c3)nc(N3CC[C@@H](N)C3)c2c1Cl [700,812] | 4 | 4 |
| CCc1[nH]c2nc(Oc3cncc(C#N)c3)nc(Oc3ccc(OC)c(OC)c3)c2c1Cl [700,813] | >64 | >64 |
| CCc1[nH]c2nc(Sc3cnc4nccnc4c3)nc(N3C[C@@H]4[C@H](C3)[C@H]4N(Cc3ccccc3)Cc3ccccc3)c2c1Cl [700,822] | >64 | >64 |
| CCc1[nH]c2nc(Sc3cnc4cccnc4c3)nc(N3C[C@@H]4[C@H](C3)[C@H]4N(Cc3ccccc3)Cc3ccccc3)c2c1Cl [700,823] | 64 | 64 |
| CCc1[nH]c2nc(Sc3ccc4c(N5CC[C@@H](N)C5)cc(C(=O)O)nc4c3)nc(N3CC[C@@H](N)C3)c2c1Cl [700,825] | >64 | 64 |
| CCc1[nH]c2nc(Sc3cnc4c(N)nc(CN5CCNCC5)nc4c3)nc(N3CC[C@@H](N)C3)c2c1Cl [700,826] | 32 | 8 |
| CCc1[nH]c2nc(Sc3cnc4c(N)nc(CN5CCC(N)CC5)nc4c3)nc(N3CC[C@@H](N)C3)c2c1Cl [700,827] | 32 | 4 |
| CCc1[nH]c2nc(Oc3cncc(C#N)c3)nc(Oc3cccc(C(=O)O)c3)c2c1Cl [700,828] | >64 | >64 |
| C=Cc1nc(Oc2cccc(C#N)c2)nc2[nH]c(CC)c(Cl)c12 [700,831] | 4 | 2 |
| C=CCc1nc(Oc2ccc(Cl)c(C#N)c2)nc2[nH]c(CC)c(Cl)c12 [700,832] | >8 | 4 |
| CCc1[nH]c2nc(Sc3cnc4nccnc4c3)nc(Oc3cccc(C#N)c3)c2c1Cl [700,833] | 2 | <=0.5 |
| CCc1[nH]c2nc(Sc3cnc4nccnc4c3)nc(Oc3ccc(OC)c(C#N)c3)c2c1Cl [700,834] | 8 | 1 |
| CCc1[nH]c2nc(Sc3ccc4cc5c(nc4c3)CCNC5)nc(N3CC[C@@H](N)C3)c2c1Cl [700,841] | 8 | 4 |

| Compound | MIC Spn52 (S. pneumoniae ATCC 51916) | MIC, SA (S. aureus ATCC 13709) |
| --- | --- | --- |
| CCc1[nH]c2nc(Sc3ccc4c(N5CC[C@@H](N)C5)cc(C)nc4c3)nc(N3CC[C@@H](N)C3)c2c1Cl [700,843] | >64 | 64 |
| CCc1[nH]c2nc(Sc3ccc4nnc(C(=O)NCCN5CCCC5)nc4c3)nc(N3CC[C@@H](N)C3)c2c1Cl [700,844] | 32 | 64 |
| CCc1[nH]c2nc(Sc3ccc4nnc(C(=O)NCC5CCNCC5)nc4c3)nc(N3CC[C@@H](N)C3)c2c1Cl [700,845] | >64 | >64 |
| CCc1[nH]c2nc(Sc3ccc4c(N)nc(CN5CCC(N)CC5)nc4c3)nc(N3CC[C@@H](N)C3)c2c1Cl [700,846] | >64 | >64 |
| CCc1[nH]c2nc(Sc3ccc4c(N)nc(CN5CCNCC5)nc4c3)nc(N3CC[C@@H](N)C3)c2c1Cl [700,847] | >64 | >64 |
| CCc1[nH]c2nc(Sc3cc(F)cc(F)c3C#N)nc(N3CC[C@@H](N)C3)c2c1Cl [700,848] | 64 | 64 |
| CCc1[nH]c2nc(Sc3ccc4c(N)n[nH]c4c3)nc(N3CC(N)C3)c2c1Cl [700,850] | >64 | 64 |
| CCc1[nH]c2nc(Sc3cnc4cccnc4c3)nc(N3CC4CC3CC4N)c2c1Cl (stereo not shown) [700,857] | 1 | 1 |
| CCc1[nH]c2nc(Sc3ccc4cc(C(=O)O)c(C(=O)O)nc4c3)nc(N3CC[C@@H](N)C3)c2c1Cl [700,859] | >64 | 32 |
| CCc1[nH]c2nc(Sc3ccc4c(N5CC(C6(N)CC6)C5)cc(C(=O)O)nc4c3)nc(N3CC[C@@H](N)C3)c2c1Cl [700,860] | >64 | >64 |
| CCc1[nH]c2nc(Sc3ccc4cc5c(=O)[nH][nH]c(=O)c5nc4c3)nc(N3CC[C@@H](N)C3)c2c1Cl [700,861] | >64 | 16 |
| CCc1[nH]c2nc(Sc3ccc4nc(C)cc(C(N)=O)c4c3)nc(C3CC[C@@H](N)C3)c2c1Cl (stereo partly shown) [700,862] | 32 | >64 |
| CCc1[nH]c2nc(Sc3cc(OC)c4c(N)nc(C)nc4c3)nc(N3CC[C@@H](N)C3)c2c1Cl [700,863] | 8 | 8 |
| CCc1[nH]c2nc(Sc3cc(F)cc4nc(C)nc(N)c34)nc(N3CC[C@@H](N)C3)c2c1Cl [700,864] | 4 | 4 |
| CCc1[nH]c2nc(Sc3cc(Cl)c4c(N)nc(C)nc4c3)nc(N3CC[C@@H](N)C3)c2c1Cl [700,865] | <=0.5 | 1 |
| CCc1[nH]c2nc(Oc3cncnc3)nc(N(C)C)c2c1Br [700,866] | 8 | 1 |
| CCc1[nH]c2nc(Sc3cnc4cccnc4c3)nc(N3CC(Cc4cncnc4)C3)c2c1Cl [700,867] | 1 | <=0.5 |
| CCc1[nH]c2nc(Sc3cnc4cccnc4c3)nc(N3C[C@@H](N)[C@H](c4ccccc4)C3)c2c1Cl [700,872] | 2 | 1 |

Next, values leading:

| MIC Spn52 (S. pneumoniae ATCC 51916) | MIC, SA (S. aureus ATCC 13709) | Compound |
| --- | --- | --- |
| 4 | 2 | CCc1[nH]c2nc(Sc3cnc4nccnc4c3)nc(N3CCCC(CO)C3)c2c1Cl (stereo not shown) [700,814] |
| 2 | 2 | CCc1[nH]c2nc(Sc3cnc4nccnc4c3)nc(N3CCC(CN4CCCC4=O)CC3)c2c1Cl [700,815] |
| <=0.5 | <=0.5 | CCc1[nH]c2nc(Sc3cnc4nccnc4c3)nc(N3C[C@@H]4[C@@H](N)[C@@H]4C3)c2c1Cl [700,816] |
| <=0.5 | <=0.5 | CCc1[nH]c2nc(Sc3cnc4cccnc4c3)nc(N3C[C@@H]4[C@@H](N)[C@@H]4C3)c2c1Cl [700,817] |
| 8 | 2 | CCc1[nH]c2nc(Sc3ccc(C#N)nc3)nc(N3CC[C@@H](N)C3)c2c1Cl [700,818] |
| 32 | 16 | CCc1[nH]c2nc(Sc3cncc(N)c3)nc(N3CC[C@@H](N)C3)c2c1Cl [700,820] |
| >64 | >64 | CCc1[nH]c2nc(Sc3cncc(O)c3)nc(N3CC[C@@H](N)C3)c2c1Cl [700,821] |
| 8 | 2 | CCc1[nH]c2nc(Sc3cncc(C#N)c3)nc(N3CC[C@@H](N)C3)c2c1Cl [700,824] |
| 32 | 16 | CCc1[nH]c2nc(Sc3cnc4nccnc4c3)nc(N3CCC(CN)CC3)c2c1Cl [700,829] |
| 2 | <=0.5 | CCc1[nH]c2nc(Sc3cnc4nccnc4c3)nc(N3CCC(CO)C3)c2c1Cl (stereo not shown) [700,830] |
| >64 | 4 | CCc1[nH]c2nc(Sc3cnc4nccnc4c3)nc(N3CC(NC(=O)C4CNC4)C3)c2c1Cl [700,842] |
| 4 | <=0.5 | CCc1[nH]c2nc(Sc3cnc4nccnc4c3)nc(N3CCC(c4cccnc4)C3)c2c1Cl (stereo not shown) [700,851] |
| >64 | 8 | CCc1[nH]c2nc(Sc3cnc4nccnc4c3)nc(N3CC(CNC(=O)C4CNC4)C3)c2c1Cl [700,858] |
| >64 | >64 | CCc1[nH]c2nc(Sc3cnc4nccnc4c3)nc(N3C[C@H](N)C[C@@H]3CO)c2c1Cl [700,868] |
| 4 | 2 | CCc1[nH]c2nc(Sc3cnc4cccnc4c3)nc(N3CC(N)C4(CC4)C3)c2c1Cl (stereo not shown) [700,869] |
| 64 | 64 | CCc1[nH]c2nc(Sc3cnc4cccnc4c3)nc(N3C[C@H](N)C[C@@H]3CO)c2c1Cl [700,870] |
| 2 | <=0.5 | CCc1[nH]c2nc(Sc3cnc4cccnc4c3)nc(N3CCC(c4cccnc4)C3)c2c1Cl (stereo not shown) [700,871] |
